In ChEMBL document CHEMBL1136505, “Myxovirescin analogues via macrocyclic ring-closing metathesis” (2003):
≈ marks a conversion by molar mass, not a printed value. Calls of active or inactive are those of the source. No cut-off for these calls is given here.

Assays:
[1] = system: Pasteurella multocida; test: Minimum inhibitory concentration against Pasteurella multocida (ATCC 63560) using agar method; format: functional
[2] = system: Corynebacterium sp.; test: Minimum inhibitory concentration against Corynebacterium sp. (ATCC 68984) using agar method; format: functional
[3] = system: Prevotella buccae; test: Minimum inhibitory concentration against Bacteroides buccae (ATCC 67792) using agar method; format: functional; conditions: Segatella buccae
[4] = system: Pasteurella sp.; test: Minimum inhibitory concentration against Pasteurella sp.(ATCC 67777) using agar method; format: functional
[5] = system: Bacteroides uniformis; test: Minimum inhibitory concentration against Bacteroides uniformis (ATCC 62723) using agar method; format: functional
[6] = system: Prevotella bivia; test: Minimum inhibitory concentration against Bacteroides bivus (ATCC 64362) using agar method; format: functional
[7] = system: Escherichia coli; test: Minimum inhibitory concentration against Escherichia coli (ATCC NCTC 6571) using agar method; format: functional
[8] = system: Pasteurella multocida; test: Minimum inhibitory concentration against Pasteurella multocida (ATCC 61096) using agar method; format: functional
[9] = system: Porphyromonas gingivalis; test: Minimum inhibitory concentration against Porphyromonas gingivalis sp.(ATCC D23C) using agar method; format: functional
[10] = system: Bacteroides ovatus; test: Minimum inhibitory concentration against Bacteroides ovatus (ATCC 66640) using agar method; format: functional
[11] = system: Schaalia meyeri; test: Minimum inhibitory concentration against Actinomyces meyeri (ATCC 61789) using agar method; format: functional
[12] = system: Pasteurella sp.; test: Minimum inhibitory concentration against Pasteurella sp.(ATCC 71886) using agar method; format: functional
[13] = system: Pasteurella sp.; test: Minimum inhibitory concentration against Pasteurella sp.(ATCC 69527) using agar method; format: functional
[14] = system: Pseudoflavonifractor capillosus; test: Minimum inhibitory concentration against Bacteroides capillosus (ATCC 60802) using agar method; format: functional
[15] = system: Staphylococcus aureus; test: Minimum inhibitory concentration against Staphylococcus aureus (ATCC NCTC 6571) using agar method; format: functional
[16] = system: Pasteurella sp.; test: Minimum inhibitory concentration against Pasteurella sp.(ATCC 67535) using agar method; format: functional
[17] = system: Hoylesella oralis; test: Minimum inhibitory concentration against Bacteroides oralis (ATCC 72708) using agar method; format: functional
[18] = system: Fusobacterium mortiferum; test: Minimum inhibitory concentration against Fusobacterium mortiferum (ATCC 63425) using agar method; format: functional
[19] = system: Bacteroides uniformis; test: Antibacterial activity against Bacteroides uniformis (ATCC 62723) at a concentration of 200 ug/mL; not active; format: functional, organism-based
[20] = system: Porphyromonas canoris; test: Antibacterial activity against Porphyromonas canoris (ATCC NCTC 12836) at a concentration of 200 ug/mL; Active; format: functional, organism-based
[21] = system: Porphyromonas gingivalis; test: Antibacterial activity against Porphyromonas gingivalis sp.(ATCC D23C) at a concentration of 200 ug/mL; format: functional, organism-based
[22] = system: Fusobacterium mortiferum; test: Antibacterial activity against Fusobacterium mortiferum (ATCC 63425) at a concentration of 200 ug/mL; not active; format: functional, organism-based
[23] = system: Hoylesella oralis; test: Antibacterial activity against Bacteroides oralis (ATCC 72708) at a concentration of 200 ug/mL; not active; format: functional, organism-based
[24] = system: Prevotella buccae; test: Antibacterial activity against Bacteroides buccae (ATCC 67792) at a concentration of 200 ug/mL; not active; format: functional, organism-based; conditions: Segatella buccae
[25] = system: Schaalia meyeri; test: Antibacterial activity against Actinomyces meyeri (ATCC 61789) at a concentration of 200 ug/mL; Active; format: functional, organism-based
[26] = system: Propionibacterium; test: Antibacterial activity against Propionibacterium sp.(ATCC 72661) at a concentration of 200 ug/mL; Active; format: functional, organism-based
[27] = system: Escherichia coli; test: Antibacterial activity against Escherichia coli (ATCC NCTC 6571) at a concentration of 200 ug/mL; not active; format: functional, organism-based
[28] = system: Pasteurella multocida; test: Antibacterial activity against Pasteurella multocida (ATCC 61096) at a concentration of 200 ug/mL; not active; format: functional, organism-based
[29] = system: Pasteurella sp.; test: Antibacterial activity against Pasteurella sp.(ATCC 71886) at a concentration of 200 ug/mL; not active; format: functional, organism-based
[30] = system: Pasteurella sp.; test: Antibacterial activity against Pasteurella sp.(ATCC 69527) at a concentration of 200 ug/mL; not active; format: functional, organism-based
[31] = system: Porphyromonas canoris; test: Antibacterial activity against Porphyromonas canoris (ATCC NCTC 12835) at a concentration of 200 ug/mL; Active; format: functional, organism-based
[32] = system: Pasteurella sp.; test: Antibacterial activity against Pasteurella sp.(ATCC 67777) at a concentration of 200 ug/mL; not active; format: functional, organism-based
[33] = system: Bacteroides ovatus; test: Antibacterial activity against Bacteroides ovatus (ATCC 66640) at a concentration of 200 ug/mL; not active; format: functional, organism-based
[34] = system: Prevotella bivia; test: Antibacterial activity against Bacteroides bivus (ATCC 64362) at a concentration of 200 ug/mL; not active; format: functional, organism-based
[35] = system: Corynebacterium sp.; test: Antibacterial activity against Corynebacterium sp. (ATCC 68984) at a concentration of 200 ug/mL; Active; format: functional, organism-based
[36] = system: Pasteurella multocida; test: Antibacterial activity against Pasteurella multocida (ATCC 63560) at a concentration of 200 ug/mL; not active; format: functional, organism-based
[37] = system: Actinomyces sp.; test: Antibacterial activity against Actinomyces sp.(ATCC 70710) at a concentration of 200 ug/mL; Active; format: functional, organism-based
[38] = system: Fusobacterium sp.; test: Antibacterial activity against Fusobacterium sp.(ATCC 74714) at a concentration of 200 ug/mL; not active; format: functional, organism-based
[39] = system: Pseudoflavonifractor capillosus; test: Antibacterial activity against Bacteroides capillosus (ATCC 60802) at a concentration of 200 ug/mL; not active; format: functional, organism-based
[40] = system: Pasteurella sp.; test: Antibacterial activity against Pasteurella sp.(ATCC 67535) at a concentration of 200 ug/mL; Active; format: functional, organism-based
[41] = system: Staphylococcus aureus; test: Antibacterial activity against Staphylococcus aureus (ATCC NCTC 6571) at a concentration of 200 ug/mL; not active; format: functional, organism-based
[42] = system: Actinomyces sp.; test: Antibacterial activity against Actinomyces sp.(ATCC 70710) at a concentration of 200 ug/mL; not active; format: functional, organism-based
[43] = system: Corynebacterium sp.; test: Antibacterial activity against Corynebacterium sp. (ATCC 68984) at a concentration of 200 ug/mL; not active; format: functional, organism-based
[44] = system: Pasteurella sp.; test: Antibacterial activity against Pasteurella sp.(ATCC 67535) at a concentration of 200 ug/mL; not active; format: functional, organism-based
[45] = system: Propionibacterium; test: Antibacterial activity against Propionibacterium sp.(ATCC 72661) at a concentration of 200 ug/mL; not active; format: functional, organism-based
[46] = system: Actinomyces sp.; test: Minimum inhibitory concentration against Actinomyces sp.(ATCC 70710) using agar method; format: functional
[47] = system: Porphyromonas canoris; test: Minimum inhibitory concentration against Porphyromonas canoris (ATCC NCTC 12835) using agar method; format: functional
[48] = system: Porphyromonas canoris; test: Minimum inhibitory concentration against Porphyromonas canoris (ATCC NCTC 12836) using agar method; format: functional
[49] = system: Propionibacterium; test: Minimum inhibitory concentration against Propionibacterium sp.(ATCC 72661) using agar method; format: functional
[50] = system: Fusobacterium sp.; test: Minimum inhibitory concentration against Fusobacterium sp.(ATCC 74714) using agar method; format: functional, fusobacterium species
[51] = system: Staphylococcus aureus; test: Antibacterial activity against Staphylococcus aureus (ATCC NCTC 6571) at a concentration of 200 ug/mL; Active; format: functional, organism-based
[52] = system: Hoylesella oralis; test: Antibacterial activity against Bacteroides oralis (ATCC 72708) at a concentration of 200 ug/mL; Active; format: functional, organism-based
[53] = system: Bacteroides ovatus; test: Antibacterial activity against Bacteroides ovatus (ATCC 66640) at a concentration of 200 ug/mL; Active; format: functional, organism-based
[54] = system: Porphyromonas gingivalis; test: Antibacterial activity against Porphyromonas gingivalis sp.(ATCC D23C) at a concentration of 200 ug/mL; Active; format: functional, organism-based

| Compound | MIC [1] | MIC [2] | MIC [3] | MIC [4] | MIC [5] | Activity [19] | Activity [20] | Activity [22] | Activity [24] | Activity [25] | Activity [27] | Activity [28] | Activity [29] | Activity [30] | Activity [31] | Activity [32] | Activity [34] | Activity [36] | Activity [38] | Activity [39] | further results |
| --- | --- | --- | --- | --- | --- | --- | --- | --- | --- | --- | --- | --- | --- | --- | --- | --- | --- | --- | --- | --- | --- |
| CCC[C@@H]1OC(=O)[C@@H](C)C[C@H](C)CCCCC(=O)CCC[C@@H](CC)CC/C=C(\COC)CC[C@@H](O)[C@@H](O)C[C@H](O)CNC1=O | 0.78 µg/mL (≈ 1.25 µM) | 12.5 µg/mL (≈ 20 µM) | > 50 µg/mL | 1.56 µg/mL (≈ 2.49 µM) | 12.5 µg/mL (≈ 20 µM) |  |  |  |  |  |  |  |  |  |  |  |  |  |  |  | MIC [6]: 6.25 µg/mL (≈ 9.99 µM); MIC [7]: 3.12 µg/mL (≈ 4.98 µM); MIC [8]: 1.56 µg/mL (≈ 2.49 µM); MIC [9]: 1.56 µg/mL (≈ 2.49 µM); MIC [10]: 12.5 µg/mL (≈ 20 µM); MIC [11]: 12.5 µg/mL (≈ 20 µM); MIC [12]: 0.78 µg/mL (≈ 1.25 µM); MIC [13]: 3.12 µg/mL (≈ 4.98 µM); MIC [14]: 12.5 µg/mL (≈ 20 µM); MIC [15]: > 50 µg/mL; MIC [16]: 0.78 µg/mL (≈ 1.25 µM); MIC [17]: 6.25 µg/mL (≈ 9.99 µM); MIC [18]: > 50 µg/mL |
| CCC[C@@H]1OC(=O)CCCCCCCCCCCCCC/C=C(\C)CC[C@@H](O)[C@@H](O)C[C@H](O)CNC1=O |  |  |  |  |  | inactive | Active | inactive | inactive | Active | inactive | inactive | inactive | inactive | Active | inactive | inactive | inactive | inactive | inactive | Activity [21]: inactive; Activity [23]: inactive; Activity [26]: Active; Activity [33]: inactive; Activity [35]: Active; Activity [37]: Active; Activity [40]: Active; Activity [41]: inactive |
| CCC[C@@H]1OC(=O)CCCCCCCCCCCCCC/C=C/C[C@H](O)[C@H](O)[C@@H](O)[C@H](O)[C@H](O)CNC1=O |  |  |  |  |  | inactive | Active | inactive | inactive | Active | inactive | inactive | inactive | inactive | Active | inactive | inactive | inactive | inactive | inactive | Activity [21]: inactive; Activity [23]: inactive; Activity [42]: inactive; Activity [43]: inactive; Activity [44]: inactive; Activity [33]: inactive; Activity [45]: inactive; Activity [41]: inactive |
| CCC[C@@H]1OC(=O)[C@@H](C)C[C@H](C)CCCCC(=O)CCC[C@@H](CC)/C=C/C=C(\COC)CC[C@@H](O)[C@@H](O)C[C@H](O)CNC1=O | > 50 µg/mL | > 50 µg/mL | 12.5 µg/mL (≈ 20 µM) | 12.5 µg/mL (≈ 20 µM) | > 50 µg/mL |  |  |  |  |  |  |  |  |  |  |  |  |  |  |  | MIC [46]: > 50 µg/mL; MIC [6]: > 50 µg/mL; MIC [47]: 25 µg/mL (≈ 40.1 µM); MIC [7]: 6.25 µg/mL (≈ 10 µM); MIC [8]: > 50 µg/mL; MIC [9]: 25 µg/mL (≈ 40.1 µM); MIC [10]: > 50 µg/mL; MIC [11]: > 50 µg/mL; MIC [12]: 12.5 µg/mL (≈ 20 µM); MIC [48]: 25 µg/mL (≈ 40.1 µM); MIC [13]: 25 µg/mL (≈ 40.1 µM); MIC [14]: 25 µg/mL (≈ 40.1 µM); MIC [15]: > 50 µg/mL; MIC [49]: > 50 µg/mL; MIC [16]: 12.5 µg/mL (≈ 20 µM); MIC [17]: > 50 µg/mL; MIC [18]: 12.5 µg/mL (≈ 20 µM); MIC [50]: > 50 µg/mL |
| CCC[C@H]1OC(=O)CCCCCCCCCCCCCC/C=C/C[C@H](O)[C@H](O)[C@@H](O)[C@H](O)[C@H](O)CNC1=O |  |  |  |  |  | inactive | Active | inactive | inactive | Active | inactive | inactive | inactive | inactive | Active | inactive | inactive | inactive | inactive | inactive | Activity [51]: Active; Activity [26]: Active; Activity [52]: Active; Activity [53]: Active; Activity [35]: Active; Activity [37]: Active; Activity [40]: Active; Activity [54]: Active |
